Data taken from paper PMC5047049, “Characterization of a functional C3A liver spheroid model” (Toxicology Research, 2016).
“Also recorded” adds a separate entry of the source. Like-named read-outs stand apart in the source and are kept apart here.

Legend:
[1] = system: MRP2 and Pgp transporters; test: Analysis of transporter function with CMFDA substrate in C3A spheroids; format: cell-based; settings: 30 min
Description: (§1) Spheroids and monolayers were incubated with 5 μM 5-chloromethylfluorescein diacetate (CMFDA-Life Technologies) with or without 25 μM MK571 (MRP inhibitor) and 12.5 μM PSC833 (Pgp inhibitor) in EMEM for 30 min at 37 °C. CMFDA is membrane permeable until it enters cell and is converted to glutathione-methylfluorescein (GSMF), a cell impermeable substrate for MRP and Pgp.[40] Cells and spheroids were washed in PBS and prepared for immunofluorescence as described above.

[2] = system: MRP2 and Pgp transporters; test: Analysis of transporter function with CMFDA substrate in 2D monolayer C3A cells; format: cell-based; settings: 5 μM CMFDA, 30 min
Description: as §1

C3A spheroids = test: Toxicological analysis: Cell Titer-Glo cell viability in C3A spheroids, 4 days with repeat dosing; format: cell-based
Description: Spheroids were created using the liquid overlay technique as previously described.[38] Briefly, 100 μl of sterile 1.5% Agarose (high gelling temperature-Sigma Aldrich) in EMEM was added per well to flat-bottomed 96-well cell culture plates to form a low-adherence surface. Additionally Ultra Low Adherence plates (ULA-Corning) were used as a comparison. C3A cells were seeded at 500, 750, 1000, 1500, 2000 or 2500 cells per well in 100 μl media and left for 72 hours to form spheroids. Media was renewed twice weekly and spheroids were cultured for up to 32 days. Images of spheroids in culture were taken by phase-contrast microscopy through 4× objective and maximum spheroid diameter measured. Spheroids were treated at day 3 of culture with hepatotoxic compounds acetaminophen, fialuridine, diclofenac and trovafloxacin diluted in 0.5% DMSO in EMEM for 4 days with repeat dosing on day 2. Monolayer C3A cells were treated with compounds for 24 hours. Cell viability was analysed using Cell Titer-Glo assay (Promega) according to the manufacturer's instructions and plotted as a percentage of untreated control.

C3A 2D monolayer = test: Toxicological analysis: Cell Titer-Glo cell viability in C3A 2D monolayer, 24 hours; format: cell-based
Description: C3A cells were maintained in EMEM (LGC Standards) supplemented with 10% FBS and 1% penicillin–streptomycin under standard cell culture conditions. For 2D monolayer experiments C3A cells were seeded and left to adhere for 24 hours and confirmed to be 100% confluent before analyses. Spheroids were treated at day 3 of culture with hepatotoxic compounds acetaminophen, fialuridine, diclofenac and trovafloxacin diluted in 0.5% DMSO in EMEM for 4 days with repeat dosing on day 2. Monolayer C3A cells were treated with compounds for 24 hours. Cell viability was analysed using Cell Titer-Glo assay (Promega) according to the manufacturer's instructions and plotted as a percentage of untreated control.

HepG2 monolayer cultures = system: HepG2 monolayer cultures; set-up: method as in PMID 9862754; settings: cited from earlier work
[3] = Homo sapiens, spheroids from 1000 C3A cells, treated at day 3 for 4 days with repeat dosing on day 2, read-out: IC50 value in C3A spheroids
[4] = Homo sapiens, monolayer C3A cells treated for 24 hours, read-out: IC50 value in C3A 2D monolayer (converted)

CC(=O)Oc1ccc2c(c1)Oc1cc(OC(C)=O)ccc1C21OC(=O)c2cc(CCl)ccc21 [CMFDA, 5-chloromethylfluorescein diacetate]
CMFDA localisation in spheroids ([1]; 5 μM CMFDA, C3A spheroids): accumulation and co-localisation of the compound within secondary canalicular-like structures; also recorded: accumulation of CMFDA in the bile canalicular structures
CMFDA localisation in spheroids with MRP and Pgp transporters blocked ([1]; with 25 μM MK571 (MRP inhibitor) and 12.5 μM PSC833 (Pgp inhibitor)): retained in the cell cytoplasm
CMFDA localisation in 2D monolayer [2]: retained CMFDA (green) within the cell cytoplasm

O=C(O)Cc1ccccc1Nc1c(Cl)cccc1Cl [Diclofenac]
IC50 (C3A spheroids; [3]): 295 µM
IC50 value in C3A 2D monolayer (C3A 2D monolayer; monolayer C3A cells treated for 24 hours): Non toxic
IC50 value in C3A 2D monolayer (C3A 2D monolayer; monolayer C3A cells treated for 24 hours, listed as diclofenac): did not have a toxic response at the concentrations used
IC50 (HepG2 monolayer cultures): ~763 µM

O=c1[nH]c(=O)n([C@@H]2O[C@H](CO)[C@@H](O)[C@@H]2F)cc1I [Fialuridine]
IC50 (C3A spheroids; [3]): 206 µM
IC50 (C3A 2D monolayer; [4]): 380 µM

CC(=O)Nc1ccc(O)cc1 [Paracetamol]
IC50 (C3A spheroids; 96 h, C3A spheroids, 4 days repeat dosing, read-out: IC50 in spheroids): 7200 µM
IC50 (C3A spheroids; [3]): 7210 µM
IC50 (C3A 2D monolayer; C3A monolayer, 24 hours, read-out: IC50 in monolayer culture): 33800 µM
IC50 (C3A 2D monolayer; [4]): 33800 µM

N[C@@H]1[C@H]2CN(c3nc4c(cc3F)c(=O)c(C(=O)O)cn4-c3ccc(F)cc3F)C[C@@H]12 [Trovafloxacin]
IC50 (C3A spheroids; [3]): 65 µM
IC50 (C3A 2D monolayer; [4]): 440 µM
